“And” between values parts separate entries of the source, which are not always exact repeats. Equal values may be shown once. “Also recorded” adds a separate entry of the source.
Legend:
[1] = Salmon calcitonin/PTS893 monkey study: haematology; type: in vivo, cynomolgus monkeys (Macaca fascicularis);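 further: haematology parameters were measured in blood collected from a peripheral vein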
Description: Animals were fasted overnight before blood collection but had free access to water. Blood samples were taken from a peripheral vein. Standard haematology and clinical chemistry analysis were performed once during pretest and at the end of the treatment period. Blood samples were collected from each animal at the same intervals as described for the clinical chemistry investigations. The serum samples were deep-frozen (approximately −80° C.) until analyses for hormone determination.

[2] = tested on: Insulin-Like Growth Factor Binding Protein 2; assay: Serum determination of insulin-like growth factor binding protein 2 in FGF23CTP-treated monkeys; type: in vivo, cynomolgus monkey
Description: At the end of the treatment period samples from all organs are subjected to snap freezing at necropsy and are analyzed with GeneChip® expression profiling.
Serum levels were determined for IGFB2 and found to be decreased, in agreement with the decreased transcript levels in several organs, including the liver.

[3] = tested on: hyperoxia-induced angioproliferative retinopathy; assay: Hypoxic vascular retinopathy mouse model: proliferation score on retinal flatmounts after intravitreal injection; type: in vivo, C57/B16J mice; parameters: key to blood vessel tufts: points summed over zones; Zone 2 max 4 P, Zones 3 and 4 max 12 P; avascular zone: scale not given here
Description: Seven days old C57/B16J mice are put together with their nursing parent in a sealed container ventilated by a mixture of oxygen and compressed air to a final oxygen concentration of 75%±2% until day 12. Returned at room air, the animals develop a relative ischemia of the retina with neovascularization starting as early as day 14.
On day 12, when animals returned from the oxygen incubation, a volume of 2.0 μl is injected in the eye using a glass pipette with a diameter of about 150 μm at its tip.
For the intravitreal injection of a substance at day 12, mice are anesthetized by inhalation of isoflurane. Five days later the animals are sacrificed after perfusion with dextran-fluorescein and retinal flatmounts are prepared. The coded whole mounts allow to evaluate the vascular changes of the retinal blindly. The proliferation score includes quantification of the proliferation including the papilla, vascular development, vasoconstriction, retinal bleeding and tortuosity of the vessels, features also seen in human retinal disease.
Of those, 8 animals died during hyperoxia or after injection, 2 animals are not perfused, 5 animals are paraffin embedded for evaluation of neurons, of which only three could be examined, and from 29 of these animals retinal flatmounts are prepared.
Evaluation of the angioproliferative changes in the retinal preparations is performed in a masked way on coded preparations. […] The following features are taken into consideration: neovascularisation of the optic disc, blood vessel tufts formation, large clusters of blood vessel tufts, central vasoconstriction and tortuosity of the vessels. Retinal haemorrhages are not taken into account as they may also result from the intraocular injection.
For each criteria, a defined number of points (P) is assigned, which are summed up to a total proliferation score. The higher the score, the worse the hypoxia induced retinopathy. In detail:
Neovascularisation of the optic disc: either 1 or 0 points are assigned in case optic disc proliferation is measured (1 P) or absence (0 P).
Blood vessel tufts formation: the score for blood vessel tufts is determined by dividing every clock hour of the preparation surface in 4 zones: Zone 1 (optic disc zone) is evaluated in addition; Zone 2: one point for every wing (maximal 4 P); Zone 3: one point for every clock hour (maximal 12 P); and Zone 4: one point for every clock hour (maximal 12 P). Thus, a maximum of 28 points is measured provided that no avascular areas exist, and a maximum of 12 points is calculated in case of complete avascularization.
Large clusters of blood vessel tufts: every large cluster of blood vessel tufts covering more than 3 sectors is counted as one point. Thus, maximal 8 points can be measured provided that no avascular areas exist, and maximal 4 points are assignable for complete avascularization.
Central vasoconstriction: 1 point is assigned to a vasoconstriction of zone 1 of greater than 50%; 1 point is allocated if the vasoconstriction is greater than 50% of every wing of zone 2 and 3. Thus, maximal 1 point can be assigned to zone 1, and maximal 4 points each for zones 2, 3 and 4. Since so far no vasoconstriction is ever observed for zone 4, a maximum of total 9 points (without zone 4) can be allotted.
Tortuosity of the vessels: 2 points are assigned if less than one-third of the vessels are tortuous; if the amount of tortuous blood vessels is between one-third and two-thirds, 4 points are allocated, and in case more than two-thirds of the vessels are tortuous, than 6 points are given.
Proliferation in avascular zones is never observed. This is in principle a mutual exclusion of criteria; the existence of vascular proliferations has a higher impact on the retinopathy score than large avascular areas. Therefore, the maximum score ever counted with this system is 38 points using a substance which is considered to enhance vascular proliferation.
The severity of retinopathy varies from animal to animal. […]

[4] = right eye, FGF23CTP intravitreal, individual animals, retinal flatmounts
[5] = treated right eye (FGF23CTP) vs control left eye (PBS), DF 28

Question: What does the source list for “Leu8, Asp10, Lysll, A1a16, G1n18, Thr33, A1a34 human PTH 1-34 [PTS893, Leu8, Asp10, Lysll, A1a16, G1n18, Thr33, A1a34 human PTH 1-34 [hPTH(1-34)]]”?
Answer: Haematology L ([1]; females, d7): 6.29 pg/ml and 5.87 pg/ml; Haematology M ([1]; females, d7): 0.44 nmol/l; Haematology MCH ([1]; females, d7): 18.9 ng/ml and 19.0 ng/ml; Haematology N ([1]; females, d7): 10.8 nmol/l and 5.49 nmol/l; Haematology PCV ([1]; females, d7): 0.41 mU/l and 0.43 mU/l; Haematology PLAT ([1]; females, d7): 525 nmol/l and 382 nmol/l; Haematology RBC ([1]; females, d7): 6.2 nmol/l and 6.4 nmol/l; Haematology E ([1]; females, d13): 0.21 mUI/l and 0.29 mUI/l; Haematology HB ([1]; females, d13): 11.3; Haematology L ([1]; females, d13): 5.81 pg/ml and 5.21 pg/ml; Haematology MCH ([1]; females, d13): 19.3 ng/ml and 19.2 ng/ml; Haematology MCHC ([1]; females, d13): 28.6 pg/ml and 29.2 pg/ml; Haematology N ([1]; females, d13): 6.36 nmol/l and 4.18 nmol/l; Haematology PCV ([1]; females, d13): 0.40 mU/l and 0.39 mU/l; Haematology PLAT ([1]; females, d13): 496 nmol/l and 309 nmol/l; Haematology RBC ([1]; females, d13): 5.9 nmol/l; Haematology L ([1]; females, d−8 (before dosing)): 3.92 pg/ml and 4.40 pg/ml; Haematology M ([1]; females, d−8 (before dosing)): 0.80 nmol/l and 0.54 nmol/l; Haematology MCH ([1]; females, d−8 (before dosing)): 19.3 ng/ml; Haematology MCHC ([1]; females, d−8 (before dosing)): 30.6 pg/ml and 30.2 pg/ml; Haematology N ([1]; females, d−8 (before dosing)): 5.34 nmol/l and 9.05 nmol/l; Haematology PCV ([1]; females, d−8 (before dosing)): 0.44 mU/l and 0.43 mU/l; Haematology RBC ([1]; females, d−8 (before dosing)): 6.9 nmol/l and 6.7 nmol/l; Haematology B ([1]; males, d7): 0.02 G/l and 0.03 G/l; Haematology HB ([1]; males, d7): 11.3 g/dl and 11.9 g/dl; Haematology L ([1]; males, d7): 5.91 G/l and 5.30 G/l; Haematology MCH ([1]; males, d7): 17.7 pg and 20.2 pg; Haematology MCHC ([1]; males, d7): 29.3 g/dl and 30.2 g/dl; Haematology MCV ([1]; males, d7): 60 fl and 67 fl; Haematology PCV ([1]; males, d7): 0.38 l/l and 0.40 l/l; Haematology PLAT ([1]; males, d7): 456 G/l and 589 G/l; Haematology RBC ([1]; males, d7): 6.4 T/l and 5.9 T/l; Haematology WBC ([1]; males, d7): 8.4 G/l and 15.0 G/l; Haematology B ([1]; males, d13): 0.04 G/l and 0.03 G/l; Haematology HB ([1]; males, d13): 11.7 g/dl and 11.8 g/dl; Haematology L ([1]; males, d13): 5.37 G/l and 4.86 G/l; Haematology M ([1]; males, d13): 0.27 G/l and 0.46 G/l; Haematology MCH ([1]; males, d13): 17.3 pg and 20.3 pg; Haematology MCHC ([1]; males, d13): 27.5 g/dl and 29.2 g/dl; Haematology MCV ([1]; males, d13): 63 fl and 70 fl; Haematology PCV ([1]; males, d13): 0.43 l/l and 0.41 l/l; Haematology PLAT ([1]; males, d13): 330 G/l and 452 G/l; Haematology RBC ([1]; males, d13): 6.8 T/l and 5.8 T/l; Haematology WBC ([1]; males, d13): 8.8 G/l and 11.9 G/l; Haematology HB ([1]; males, d−6 (before dosing)): 13.6 g/dl and 13.2 g/dl; Haematology L ([1]; males, d−6 (before dosing)): 5.07 G/l and 3.99 G/l; Haematology MCH ([1]; males, d−6 (before dosing)): 18.0 pg and 20.4 pg; Haematology MCHC ([1]; males, d−6 (before dosing)): 31.5 g/dl and 33.1 g/dl; Haematology MCV ([1]; males, d−6 (before dosing)): 57 fl and 62 fl; Haematology N ([1]; males, d−6 (before dosing)): 4.45 G/l and 4.80 G/l; Haematology PCV ([1]; males, d−6 (before dosing)): 0.43 l/l and 0.40 l/l; Haematology PLAT ([1]; males, d−6 (before dosing)): 325 G/l and 459 G/l; Haematology RBC ([1]; males, d−6 (before dosing)): 7.6 T/l and 6.5 T/l; Haematology WBC ([1]; males, d−6 (before dosing)): 10.4 G/l and 9.1 G/l

B1: FGF23CTP: unique 75-mer COOH-terminal peptide of FGF-23, SEQ ID NO: 2 (peptide, listed as Homo sapiens)
chain: HTRSAEDDSERDPLNVLKPRARMTPAPASCSQELPSAEDNSPMASDPLGVVRGGRVNTHAGGTGPEGCRPFAKFI
Question: With B1 as the molecule, how does the “Serum Insulin-Like Growth Factor Binding Protein 2, mean” value ([2]; 100 μg/day) read?
Answer: The value was 893 ng/mL.

Question: What about the “Serum Insulin-Like Growth Factor Binding Protein 2, conc” value ([2]; individual animals, 100 μg/day) of the same molecule?
Answer: Its value is 987.6 ng/mL and 596.7 ng/mL and 749.5 ng/mL and 1239.8 ng/mL.

Question: And the “Serum protein levels of circulating IGF2-binding protein” value ([2]; treated animals, two weeks sc)?
Answer: Its value is “decreased”.

Question: What about the “Proliferation score, Mean Difference (paired t-test, treated right eye vs PBS left eye)” value ([3]; 6 μg intravitreal, DF 28, P-Value 0.0375) of the same molecule?
Answer: The value was −3.172.

Question: And the “Effect on proliferative component of retinal angiopathy / proliferation score” value ([3]; intravitreal injection, b229 p=0.018, b476 paired t-test p=0.04)?
Answer: Its value is “significantly inhibited; also recorded: reaches statistical significance”.

Question: And the avascular zone [3, 4]?
Answer: The avascular zone was 1 (7×) and 2 (4×) and 0 (3×) and 3 (7×) and 4 (4×) and 7 and 6 (2×) and 5.

Question: What about the blood vessel tufts [3, 4] of the same molecule?
Answer: Its blood vessel tufts is 6 (4×) and 2 (3×) and 4 (3×) and 1 (2×) and 3 and 5 (2×) and 0 (2×) and 7 (4×) and 10 (3×) and 14 (2×) and 13 and 11 and 9.

Question: What about the “large clusters of prolif.” value [3, 4] of the same molecule?
Answer: Its value is 0 (16×) and 1 (6×) and 2 (2×) and 3 (2×) and 4 (2×) and 5.

Question: And the proliferation sum [3, 4]?
Answer: The proliferation sum was 7 (2×) and 2 (3×) and 4 (4×) and 1 (2×) and 6 (4×) and 5 and 0 (2×) and 8 (2×) and 10 (2×) and 11 and 17 and 12 (2×) and 18 (2×) and 14.

Question: And the tortuosity of vessels [3, 4]?
Answer: Its tortuosity of vessels is 0 (8×) and 2 (7×) and 3 and 1 (9×) and 5 and 6 (2×) and 4.

Question: What about the “Paired t-test avascular zone: Mean Difference” value [3, 5] of the same molecule?
Answer: Its value is −0.034.

Question: What about the “Paired t-test proliferation sum: Mean Difference” value [3, 5] of the same molecule?
Answer: Its value is −2.724.

Question: What about the “Paired t-test tortuosity of the vessels: Mean Difference” value [3, 5] of the same molecule?
Answer: The value was −0.517.

Reference: patent US20130040882A1, “USE OF FIBROBLAST GROWTH FACTOR FRAGMENTS” (NOVARTIS AG, priority 2003, published 2013)
